In PubChem BioAssay (NCI):
Values joined by “and” are separate entries in the source; they are usually repeats but may differ in a detail not shown here. Equal entries are not always repeated.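 Interpolation was linear, between the two tested concentrations surrounding the appropriate level; five concentrations were tested over 48 hours in 96-well plates. At the GI50, growth is halved. TGI: total growth inhibition.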

How the values were obtained:
Assay in all cases: DTP human tumour cell line panel, 48 h
NCI-H460 lung = system: NCI-H460 lung
MCF7 breast = system: MCF7 breast
SR leukemia = system: SR leukemia
DU-145 prostate = system: DU-145 prostate
NCI-H23 lung = system: NCI-H23 lung
A549 NSCLC = system: A549 NSCLC
OVCAR-4 ovarian = system: OVCAR-4 ovarian
HS 578T breast = system: HS 578T breast
OVCAR-8 ovarian = system: OVCAR-8 ovarian
HT29 colon = system: HT29 colon

In the case of O=C1c2ccccc2-c2c1c1ccccc1c(=O)n2CCCNCCCn1c2c(c3ccccc3c1=O)C(=O)c1ccccc1-2, the GI50 (NCI-H460 lung) is reported as 2.31 µM, the TGI (NCI-H460 lung) is reported as greater than 17.7 µM and the GI50 (MCF7 breast) is reported as 1.33 µM. It also gave a TGI (MCF7 breast) greater than 10.5 µM, a GI50 (SR leukemia) of 14.3 µM and a TGI (SR leukemia) greater than 50 µM. For the same compound, the GI50 (DU-145 prostate) was 1.49 µM, the TGI (DU-145 prostate) was 5.85 µM and the GI50 (NCI-H23 lung) was 10.4 µM. For the same compound, the TGI (NCI-H23 lung) was greater than 29.7 µM, the GI50 (A549 NSCLC) was 2.01 µM and the TGI (A549 NSCLC) was greater than 50 µM. For the same compound, the GI50 (OVCAR-4 ovarian) was 3.2 µM, the TGI (OVCAR-4 ovarian) was 9.57 µM and the GI50 (HS 578T breast) was 9.54 µM. It also gave a TGI (HS 578T breast) of 32.9 µM, a GI50 (OVCAR-8 ovarian) of 2.46 µM and a TGI (OVCAR-8 ovarian) greater than 26 µM. The GI50 (HT29 colon) was 0.997 µM and the TGI (HT29 colon) was greater than 50 µM.
For CC(O)C1OC(O)C2OC(C)(C)OC12 (stereo unspecified), the TGI (NCI-H460 lung) was greater than 100 µM, the TGI (MCF7 breast) was greater than 100 µM and the TGI (SR leukemia) was greater than 100 µM. For the same compound, the TGI (DU-145 prostate) was greater than 100 µM, the TGI (NCI-H23 lung) was greater than 100 µM and the TGI (A549 NSCLC) was greater than 100 µM. It also gave a TGI (OVCAR-4 ovarian) greater than 100 µM, a TGI (HS 578T breast) greater than 100 µM and a TGI (OVCAR-8 ovarian) greater than 100 µM. It also gave a TGI (HT29 colon) greater than 100 µM.
O=C1OC(c2ccco2)=N/C1=C\c1ccc(Cl)c(Cl)c1 gave a TGI (NCI-H460 lung) greater than 100 µM, a TGI (MCF7 breast) greater than 100 µM and a TGI (SR leukemia) greater than 100 µM. It also gave a TGI (DU-145 prostate) greater than 100 µM, a TGI (NCI-H23 lung) greater than 100 µM and a TGI (A549 NSCLC) greater than 100 µM. For the same compound, the TGI (OVCAR-4 ovarian) was greater than 100 µM, the TGI (HS 578T breast) was greater than 100 µM and the TGI (OVCAR-8 ovarian) was greater than 100 µM. The TGI (HT29 colon) was greater than 100 µM.
In the case of Cc1ccc(NC(c2ccccc2)c2ccc3cccnc3c2O)cc1 (stereo unspecified), the TGI (NCI-H460 lung) is reported as greater than 25 µM, the TGI (MCF7 breast) is reported as 16.2 µM and the TGI (SR leukemia) is reported as 14.4 µM. The TGI (DU-145 prostate) was 23.4 µM, the TGI (NCI-H23 lung) was 19.2 µM and the TGI (A549 NSCLC) was 41.3 µM. It also gave a TGI (OVCAR-4 ovarian) of 16.4 µM, a TGI (HS 578T breast) of 61.3 µM and a TGI (OVCAR-8 ovarian) of 11.1 µM. It also gave a TGI (HT29 colon) of 13.6 µM.
With COc1ccc(C(=O)Cn2c(C(=O)c3ccc(OC)cc3)nc3ccccc32)cc1 the GI50 (NCI-H460 lung) was 3.73 µM, the TGI (NCI-H460 lung) was greater than 100 µM and the GI50 (MCF7 breast) was 1.36 µM. It also gave a TGI (MCF7 breast) greater than 100 µM, a GI50 (SR leukemia) of 0.557 µM and a GI50 (DU-145 prostate) of 4.31 µM. The TGI (DU-145 prostate) was greater than 100 µM, the GI50 (NCI-H23 lung) was 6.15 µM and the TGI (NCI-H23 lung) was greater than 100 µM. The GI50 (A549 NSCLC) was 5.47 µM, the TGI (A549 NSCLC) was greater than 100 µM and the GI50 (OVCAR-4 ovarian) was 5.8 µM. The TGI (OVCAR-4 ovarian) was greater than 100 µM, the GI50 (HS 578T breast) was 2.14 µM and the TGI (HS 578T breast) was greater than 28.5 µM. For the same compound, the GI50 (OVCAR-8 ovarian) was 5.85 µM, the TGI (OVCAR-8 ovarian) was greater than 100 µM and the GI50 (HT29 colon) was 0.576 µM. It also gave a TGI (HT29 colon) greater than 100 µM.
COc1ccc(C(=O)/C=C/c2ccc(O)c(O)c2F)c(OC)c1 was tested, and the TGI (NCI-H460 lung) was 13 µM and 15.9 µM, the GI50 (MCF7 breast) was 0.334 µM and the TGI (MCF7 breast) was 9.83 µM and 13.1 µM. The GI50 (SR leukemia) was 0.072 µM, the GI50 (DU-145 prostate) was 5.38 µM and the TGI (DU-145 prostate) was 16.2 µM and 19 µM. For the same compound, the GI50 (NCI-H23 lung) was 5.27 µM, the TGI (NCI-H23 lung) was 12.6 µM and 32.1 µM and the GI50 (A549 NSCLC) was 8.62 µM. For the same compound, the TGI (A549 NSCLC) was 75 µM and > 100 µM, the GI50 (OVCAR-4 ovarian) was 9.3 µM and the TGI (OVCAR-4 ovarian) was 75 µM and > 100 µM. For the same compound, the GI50 (HS 578T breast) was 7.34 µM, the TGI (HS 578T breast) was 75 µM and > 100 µM and the GI50 (OVCAR-8 ovarian) was 8.81 µM. For the same compound, the TGI (OVCAR-8 ovarian) was 65.5 µM and > 100 µM, the GI50 (HT29 colon) was 4.03 µM and the TGI (HT29 colon) was 23.8 µM and 17.7 µM.
Work on CC/C=C\C[C@H](O)C/C=C1/C(=O)C=C[C@@H]1C/C=C\CCCC(=O)NC(C)C yielded a GI50 (NCI-H460 lung) of 2.43 µM, a TGI (NCI-H460 lung) of 5.79 µM and a GI50 (MCF7 breast) of 2.18 µM. It also gave a TGI (MCF7 breast) of 13.9 µM, a GI50 (SR leukemia) of 2.43 µM and a TGI (SR leukemia) of 8.33 µM. The GI50 (DU-145 prostate) was 3.22 µM, the TGI (DU-145 prostate) was 13.5 µM and the GI50 (NCI-H23 lung) was 2.33 µM. The TGI (NCI-H23 lung) was 6.09 µM, the GI50 (A549 NSCLC) was 3.24 µM and the TGI (A549 NSCLC) was 9.46 µM. For the same compound, the GI50 (OVCAR-4 ovarian) was 4.27 µM, the TGI (OVCAR-4 ovarian) was 18.4 µM and the GI50 (HS 578T breast) was 7.74 µM. It also gave a TGI (HS 578T breast) of 49.5 µM, a GI50 (OVCAR-8 ovarian) of 3.04 µM and a TGI (OVCAR-8 ovarian) of 10.7 µM. It also gave a GI50 (HT29 colon) of 2.23 µM and a TGI (HT29 colon) of 4.11 µM.
For N#CC1=C(N)Oc2cc3c(cc2C1c1cccs1)OCO3 (stereo unspecified), the GI50 (NCI-H460 lung) was 0.373 µM, the TGI (NCI-H460 lung) was 24.4 µM and the GI50 (MCF7 breast) was 0.343 µM. The TGI (MCF7 breast) was greater than 62.3 µM, the GI50 (SR leukemia) was 0.27 µM and the TGI (SR leukemia) was greater than 100 µM. For the same compound, the GI50 (DU-145 prostate) was 0.824 µM, the TGI (DU-145 prostate) was greater than 100 µM and the GI50 (NCI-H23 lung) was 0.428 µM. For the same compound, the TGI (NCI-H23 lung) was greater than 100 µM, the GI50 (A549 NSCLC) was 0.583 µM and the TGI (A549 NSCLC) was greater than 70.9 µM. For the same compound, the GI50 (OVCAR-4 ovarian) was 4.5 µM, the TGI (OVCAR-4 ovarian) was greater than 100 µM and the GI50 (HS 578T breast) was 0.411 µM. For the same compound, the GI50 (OVCAR-8 ovarian) was 0.587 µM, the TGI (OVCAR-8 ovarian) was greater than 52.7 µM and the GI50 (HT29 colon) was 0.377 µM. The TGI (HT29 colon) was 15.2 µM.
